Reference: patent publication US9096550B2, “Bryostatin analogues and methods of making and using thereof” (UNIVERSITY OF UTAH RESEARCH FOUNDATION, priority 2008, dated 2015)

What was measured:
Type in all cases: cell-based, human
LNCaP cells [1] = experiment: Proliferation of LNCaP cells (Incucyte confluency); settings: for effect on LNCaP cell growth: compound alone, confluency at 80 hrs
Protocol: (§1) FIGS. 12A-D show the effect of different compounds on the proliferation and apoptosis of LNCaP cells. […] Time-elapsed images were taken with an Incucyte imaging system every hour for 4 days. The proliferation of LNCaP cells is presented as increase in confluency (read by the instrument) at 80 hrs. Data represent the means+SEM of three independent experiments. […] Apoptosis was measured 2 days after treatment by flow cytometry using 7-AAD and Yo-Pro-1 as described in Materials and Methods. Data represent the means+SEM of three independent experiments.
FIGS. 13A and 13B show the proliferation and morphology of LNCaP cells detected by Incucyte. LNCaP cells were treated with DMSO as control, 300 nM PMA, 1000 nM bryostatin 1 or the bryologue MERLE 21, or with 300 nM PMA in combination with 1000 nM bryostatin 1 or the bryologue MERLE 21. Time-elapsed images were taken by the Incucyte imaging system every hour. […] The arrow indicates the time of treatment. Data are representative of three independent experiments.
The extent of confluency of LNCaP cells (from ATCC, Manassas, Va.) and the morphological changes after treatment were followed in real time using Incucyte (Essen Instruments, Ann Arbor, Mich.). Images of LNCaP cells plated into 24 well plates were taken every 1 hour by the instrument before and after treatment for a total of 4 days. The confluency of the cells was calculated by the instrument's program. The proliferation of LNCaP cells was expressed as the difference in cell confluency before and after treatment.

U937 cells = experiment: Attachment of U937 cells; settings: for attachment of U937 cells: compound alone, 72 hours
Protocol: U937 cells (Sundstrom, C.; Nilsson, K.: Establishment and characterization of a human histiocytic lymphoma cell line (U-937). Int. J. Cancer 1976, 17: 565-577.), purchased from ATCC (Manassas, Va.) and cultured in RPMI-1640 medium supplemented with 10% FBS (ATCC, Manassas, Va.), were plated in 35 mm dishes at a density of 2×10^5 living cells/ml and treated with different concentrations of the drugs or DMSO. After 72 hours, the number of cells in the supernatant (non-attached cells) and the number of attached cells (after trypsinization) were counted using a Beckman particle counter (Beckman Coulter Inc., Fullerton, Calif.). The number of attached cells is expressed as percent of total cells (FIGS. 8-10).
(§2) U937 cells were treated with PMA (0.1-100 nM), bryostatin 1 (1-1000 nM), the indicated compound (1-1000 nM), 10 nM PMA with different concentrations of bryostatin 1 (1-1000 nM) or 10 nM PMA with different concentrations of indicated compound (1-1000 nM) for 72 hours. The number of attached cells and total cells were counted and the attached cells were graphed as percent of total cells. The bars and error bars represent the average and the standard error of the mean of five independent experiment (FIGS. 8-10).
(§3) U937 cells (Sundstrom and Nilsson, 1976), purchased from ATCC (Manassas, Va.) and cultured in RPMI-1640 medium supplemented with 10% FBS (ATCC, Manassas, Va.), were plated in 35 mm dishes at a density of 1×10^5 living cells/ml and treated with different concentrations of the drugs or DMSO. After 72 hours, the number of cells in the supernatant (non-attached cells) and the number of attached cells (after trypsinization) were counted using a particle counter. The number of attached cells is expressed as percent of total cells.
U937 cells were treated with PMA (0.01-100 nM), bryostatin1 (0.1-1000 nM), analogue 12 (MERLE 28) (0.1-1000 nM), 10 nM PMA with different concentrations of bryostatin 1 (0.1-1000 nM) or 10 nM PMA with different concentrations of analogue 12 (0.1-1000 nM). The number of attached cells and total cells were counted and the attached cells were graphed as percent of total cells. The bars and error bars represent the average and the standard error of the mean of at least three independent experiments.
as §3, with “U-937” for “U937”
as §2, with “U-937” for “U937”, “at least three” for “five”, “experiments.” for “experiment (FIGS. 8-10).”

LNCaP cells [2] = experiment: Apoptosis of LNCaP cells (Yo-Pro-1/7-AAD flow cytometry); settings: 48 hr; for induction of apoptosis in LNCaP cells: compound alone
Protocol: as §1
(§4) LNCaP cells treated for 48 hours with the different drugs or with DMSO as control were washed and re-suspended in phosphate buffered saline. Yo-Pro-1 (Invitrogen, Carlsbad, Calif.) was added to a final concentration of 1 μM and the cells were incubated for 20 min at 4° C. in the dark. 7-Aminoactinomycin D (7-AAD) (Invitrogen, Carlsbad, Calif.) was then added at a 5 μg/mL final concentration 10 minutes before analysis by flow cytometry using the FACSCalibur system (Becton Dickinson, Mountain View, Calif.). Data were analyzed with FlowJo 7 (Tree Star Inc., Ashland, Oreg.). The Yo-Pro-1 positive cells were considered apoptotic and were expressed as % of total cells. Western blot analysis of treated LNCaP cell lysates was performed as described previously using rabbit anti-cFos, rabbit anti-PKC delta, rabbit anti-phospho-tyrosine 311 of PKC delta or rabbit anti-β-actin antibodies.

PKC delta = experiment: Phosphorylation of PKC delta at Y311 in LNCaP cells (western blot)
Protocol: FIGS. 14A-C show the induction of cFos and phosphorylation of PKC at Y311 in LNCaP cells. […] The proteins from the lysates were separated by 10% SDS-PAGE, electroblotted to nitrocellulose membranes and probed with anti-cFos primary and anti-rabbit secondary antibodies, followed by ECL visualization. Data are representative of four independent experiments. […] The cFos signal was normalized to the β-actin signal to correct for loading and the response induced by 100 nM PMA at 2 hrs was taken as 100%. Data represent the means+SEM of four independent experiments. […] Data represent the means+SEM of three independent experiments.
as §4, with “Western blot analysis of treated LNCaP cell lysates was performed as described previously using rabbit anti-cFos, rabbit anti-PKC delta, rabbit anti-phospho-tyrosine 311 of PKC delta or rabbit anti-β-actin antibodies.” left out

Row | Compound | effect on LNCaP cell growth (LNCaP cells [1]) | attachment of U937 cells (U937 cells) | induction of apoptosis in LNCaP cells (LNCaP cells [2]) | phosphorylation of PKC delta at Y311 (PKC delta) | block of the PMA inhibition of LNCaP cell growth (LNCaP cells [1]; 300 nM PMA combined with 1000 nM compound, 80 hrs) | block of PMA-induced attachment of U937 cells (U937 cells; 10 nM PMA with different concentrations of compound) | attachment of U937 cells (U937 cells; listed as Bryostatin 1) | block of induction of apoptosis by PMA in LNCaP cells (LNCaP cells [2]; 300 nM PMA in combination with 1000 nM compound)
1 | CCCCCCCCCCCCCC(=O)O[C@@H]1[C@@H](C)[C@@]2(O)[C@@H](C=C(CO)C[C@]3(O)C(=O)C(C)=C[C@@H]23)[C@@H]2C(C)(C)[C@]12OC(C)=O [PMA] | marked inhibition of cell proliferation | induces attachment | induced apoptosis | rapid phosphorylation | – | – | – | –
2 | CCC/C=C/C=C/C(=O)O[C@H]1/C(=C/C(=O)OC)C[C@H]2C[C@H]([C@@H](C)O)OC(=O)C[C@H](O)C[C@@H]3C[C@H](OC(C)=O)C(C)(C)[C@](O)(C[C@@H]4C/C(=C/C(=O)OC)C[C@H](/C=C/C(C)(C)[C@]1(O)O2)O4)O3 [bryostatin 1] | little effect | much diminished effect | little effect | only very weak phosphorylation | blocked the inhibition of LNCaP cell growth by PMA | blocks the effect of the phorbol ester in a dose-dependent manner | much less effect on either response | largely blocked the induction of apoptosis by PMA
